Measurements reported in US7868163B2, “Adenyl dinucleotides with antitumour activity and a method of preparing thereof” (Universita' Degli Studi Di Genova, priority 2005, dated 2011).
Where two headings read alike, the source gives them in different places.

What was measured:
Recombinant CD38 = assay: Hydrolysis by recombinant CD38
Procedure: (§1) ADP-ribosyl cyclases from lower and higher Metazoa were incubated in the presence of 0.1 mM cADPR and 1 mM adenine at pH 7.4 in 10 mM Tris-HCl (A, B and C) or in PBS-glucose (D) at 22° C. (A and B) or at 37° C. (C and D) for 4 hours. Aliquots of the various incubations were deproteinised with TCA (trichloroacetic acid) and subjected to HPLC (analytical phosphate). Chromatograms representative of each incubation are shown. A. A. polypoides; B. A. californica; C. Human CD38 (recombinant); D. Human HeLa cells transfected with sense and antisense human CD38 (dashed chromatogram).
(§2) In table 1, the absolute values of the peak-forming and -hydrolysing activities are compared with the cADPR-forming and -hydrolysing activities for each enzyme. The activities are expressed as nmol/min/mg.

[1] = Storage stability of purified lyophilised peaks; settings: stored at −20° C., several months (approx. 6)
Procedure: The cyclase purified from A. polypoides was used for the production of the dinucleotides for structural and functional studies. In a total volume of 0.4 ml of 10 mM Tris-HCl, pH 7.0, 0.05 mg of purified cyclase were incubated with 1 mM cADPR (or NAD^+), 5 mM adenine and 2 mM MgCl2 at room temperature. cADPR or NAD^+ was added to the reaction mixture every 6 hours, while every 24 hours fresh cyclase was added and an aliquot of the incubation was deproteinised with TCA (5% final concentration) and analysed by HPLC (analytical phosphate) to monitor dinucleotide production. After 3-5 days, the resulting incubation was extracted with TCA and 250 μl aliquots were injected into an HPLC column (preparative phosphate). The P18, P24 and P31 peaks were collected, lyophilised in a RotoVapor, re-dissolved in deionised water and injected into an HPLC column (preparative formate). […] The purified peaks produced by Axinella cyclase were used in in vitro experiments on the various cell types described hereinafter, for the enzymatic production of mononucleotides and nucleosides (see below), as internal and external HPLC standards to identify the dinucleotides in cell extracts, and for detecting the absorption spectra stored in the liquid chromatograph library as standards.

[2] = biological target: NAD-glycohydrolase (NAD-ase, from Neurospora) (Neurospora crassa, UniProt Q7S936); assay: Resistance to NAD-glycohydrolase catalysed hydrolysis
Procedure: The HPLC fractions were lyophilised, resuspended in 200 μl water and the pH eas adjusted to 7.5 with 5N NaOH. Then, in order to remove all traces of NAD^+ and cADPR (which might interfere with the enzymatic assay), NAD-glycohydrolase (NAD-ase, from Neurospora, Sigma) (0.013 IU), recombinant CD38 (0.1 μg, provided by Prof. H. C. Lee, Minneapolis, Minn.) and 2 mM MgCl2 were added to each fraction. […] All fractions were incubated at 37° C. for 18 hours, and the enzymes were removed by filtration with Immobilon-P membranes (Millipore, Bedford, Mass.). The samples were then subdivided into two aliquots and the P18 determination reactions were performed in 96 well plates, at room temperature. 50 μl of a mixture containing 30 mM nicotinamide, 100 mM sodium phosphate, with or without 0.1 μg/μl of ADP-ribosyl cyclase purified from A. polypoides, were added to 100 μl of each sample.

[3] = test system: A. polypoides ADP-ribosyl cyclase; assay: Hydrolysis by purified Axinella polypoides ADP-ribosyl cyclase; settings: purified A. polypoides cyclase; P18 to cADPR and adenine
Procedure: as §1, §2

CD38^− HeLa cells = assay: Intracellular calcium assay (FURA 2-AM), CD38- HeLa; type: cell-based, human; settings: 10 μM for 18 hours; for tapsigargine-induced release of calcium from ER stores [Ca^2+]i: 1 μM tapsigargine
Procedure: Adherent CD38^+ and CD38^− human HeLa cells on 20 mm-diameter coverslips were incubated in complete medium in the presence of […] P18 or P24 for […]. The cells were then washed, incubated with 6 μM Fura 2-acetoxymethyl ester (FURA 2-AM) in standard saline (135 mM NaCl, 5.4 mM KCl, 1.8 mM CaCl2, 1 mM MgCl2, 5 mM Hepes, 10 mM glucose, pH 7.4) for 45 minutes at 37° C. and then washed several times with saline. Calcium measurements were performed in a 200-μl chamber mounted on an inverted microscope, as described in detail in Zocchi E., et al. (1998) J. Biol. Chem. 273, 8017-8024. After determination of basal [Ca^2+]i levels, 1 μM tapsigargine was added to induce the release of calcium from tapsigargine-sensitive stores ([…]). The parameter values needed for calibration were obtained at the end of the experimental measurements, as described in Zocchi E., et al. (1998) J. Biol. Chem. 273, 8017-8024.
Basal cytosolic calcium and tapsigargine-induced release of calcium from […] (ER) stores (in bold in Table 4) were measured in CD38^+ and CD38^− HeLa cells loaded with FURA 2-AM and incubated in the absence (control) or in the presence of P18 or P24 at a concentration of 10 μM for 18 hours. The results obtained, expressed as [Ca^2+]I nanomolarity, are summarised in Table 4, showing mean results from 8 separate experiments (s.d.≦15% of the mean value).

[4] = biological target: T1, A. californica ADP-ribosyl cyclase (Aplysia californica, UniProt P29241); assay: Hydrolysis by Aplysia californica ADP-ribosyl cyclase; type: in vitro ADME; settings: P18 to adenine and ADPR
T1 construct: The cyclase purified from the mollusc Aplysia californica was purchased from Sigma; purchased Sigma; host or cells: purified from the mollusc
T1 sequence (P29241 25-282): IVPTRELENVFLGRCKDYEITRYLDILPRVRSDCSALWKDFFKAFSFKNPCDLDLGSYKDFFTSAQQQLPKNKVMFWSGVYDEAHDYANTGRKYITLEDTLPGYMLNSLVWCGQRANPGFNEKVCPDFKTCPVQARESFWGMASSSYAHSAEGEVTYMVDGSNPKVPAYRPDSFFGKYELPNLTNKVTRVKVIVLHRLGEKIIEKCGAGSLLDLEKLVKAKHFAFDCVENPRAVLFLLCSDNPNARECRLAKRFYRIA
Procedure: (A and B) or at 37° C. (C and D) for 4 hours. […] Chromatograms representative of each incubation are shown. A. A. polypoides; B. A. californica; C.
The activities are expressed as nmol/min/mg.

[5] = test system: HeLa-CD38^+ (whole cells); assay: Hydrolysis by CD38+ HeLa whole cells
Procedure: as §1, §2

Acid hydrolysis = type: physicochemical; settings: yielding adenine and ADPR

NAD-glycohydrolase (NAD-ase, from Neurospora), sequence (Q7S936 20-243): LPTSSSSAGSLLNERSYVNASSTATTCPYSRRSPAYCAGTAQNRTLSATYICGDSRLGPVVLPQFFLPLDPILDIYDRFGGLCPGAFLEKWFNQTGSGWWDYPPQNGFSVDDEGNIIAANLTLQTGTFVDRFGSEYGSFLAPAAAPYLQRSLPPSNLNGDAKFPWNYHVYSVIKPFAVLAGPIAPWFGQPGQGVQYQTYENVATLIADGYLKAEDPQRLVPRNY

Row | hydrolysis activity (Recombinant CD38) | hydrolysis activity [5] | Structure (SMILES) | resistance to CD38 catalysed hydrolysis (Recombinant CD38; recombinant CD38) | hydrolysis activity (Recombinant CD38; recombinant CD38, P18 and P24 to adenine and ADPR) | degradation on storage [1] | resistance to NAD-ase catalysed hydrolysis [2] | hydrolysis activity [3] | ER stores-calcium, % of the control (CD38^− HeLa cells) | basal [Ca^2+]i, % of the control (CD38^− HeLa cells) | basal cytosolic free calcium [Ca^2+]i (CD38^− HeLa cells) | tapsigargine-induced release of calcium from ER stores [Ca^2+]i (CD38^− HeLa cells) | hydrolysis activity [4] | hydrolysis activity ([5]; HeLa-CD38^+ whole cells, P18 and P24 to adenine and ADPR) | sensitivity to acid hydrolysis (Acid hydrolysis)
1 |  |  | Nc1ncnc2c1ncn2[C@@H]1O[C@H](COP(=O)(O)OP(=O)(O)OC[C@H]2O[C@@H](n3cnc4ncnc-4c3N)[C@H](O)[C@@H]2O)[C@@H](O)[C@H]1O [P18] | resistance | 6.0^1 nmol/min/mg | no dinucleotide degradation was observed | resistance | 10.5^2 nmol/min/mg | 78% | 52% | 12 nM | 366 nM | 3.5^1 nmol/min/mg | 0.24^1 nmol/min/mg | sensitive to acid hydrolysis
2 | 0.25^1 nmol/min/mg | 0.06^1 nmol/min/mg | Nc1ncn([C@@H]2O[C@H](COP(=O)(O)OP(=O)(O)OC[C@H]3O[C@@H](n4cnc5c(N)ncnc54)[C@H](O)[C@@H]3O)[C@@H](O)[C@H]2O)c2ncnc1-2 [P24] |  |  | no dinucleotide degradation was observed |  |  | 60% | 191% | 44 nM | 290 nM |  |  | sensitive to acid hydrolysis
